pEC50: −log10 of the molar value.
What was measured:
Hepatitis C virus = assay: Antiviral activity against Hepatitis C virus 1b con1 infected in human hepatoma cells assessed as decrease in replicon RNA level after 3 days by RT-PCR analysis; format: functional, organism-based, Hepacivirus hominis; settings: Con1, 72 h
[1] = Selectivity ratio of CC50 for human hepatoma cells by MTS assay to EC50 for Hepatitis C virus 1b con1; format: ADME; settings: read-out: Ratio CC50/EC50
[2] = Cytotoxicity against human hepatoma cells assessed as decrease in GAPDH RNA level after 3 days by RT-PCR analysis; format: cell-based
[3] = Cytotoxicity against human hepatoma cells after 3 days by MTS assay; format: cell-based
[4] = Cytotoxicity against human hepatoma cells assessed as inhibition of [14C]thymidine incorporation after 3 days by scintillation proximity assay; format: cell-based
[5] = Half life in dog at 3 mg/kg, po; format: ADME, organism-based, Canis lupus familiaris; design: dose 3 mg/kg, route oral; settings: in vivo
[6] = Half life in rat at 10 mg/kg, po; format: ADME, organism-based; design: dose 10 mg/kg, route oral; settings: in vivo
[7] = AUC (0 to 6 hrs) in rat at 10 mg/kg, po; format: ADME, organism-based; design: time < 6 hr, dose 10 mg/kg, route oral; settings: plasma
[8] = Clearance in dog at 3 mg/kg, po; format: ADME, organism-based, Canis lupus familiaris; design: dose 3 mg/kg, route oral; settings: in vivo
[9] = AUC in dog at 3 mg/kg, po; format: ADME, organism-based, Canis lupus familiaris; design: dose 3 mg/kg, route oral; settings: plasma
Liver = assay: Drug uptake in rat liver assessed per gram of tissue at 10 mg/kg, po measured at 6 hrs; format: ADME, organism-based; design: dose 10 mg/kg, route oral; settings: in vivo
[10] = Oral bioavailability in dog at 3 mg/kg; format: ADME, organism-based, Canis lupus familiaris; settings: in vivo
[11] = Clearance in rat at 10 mg/kg, po; format: ADME, organism-based; design: dose 10 mg/kg, route oral; settings: in vivo
[12] = Oral bioavailability in monkey at 3 mg/kg; format: ADME, organism-based, Macaca mulatta; settings: rhesus monkey, in vivo
[13] = AUC in monkey at 3 mg/kg, po; format: ADME, organism-based, Macaca mulatta; design: dose 3 mg/kg, route oral; settings: rhesus monkey, plasma
[14] = Clearance in monkey at 3 mg/kg, po; format: ADME, organism-based, Macaca mulatta; design: dose 3 mg/kg, route oral; settings: rhesus monkey, in vivo
[15] = Half life in monkey at 3 mg/kg, po; format: ADME, organism-based, Macaca mulatta; design: dose 3 mg/kg, route oral; settings: rhesus monkey, in vivo
[16] = Oral bioavailability in rat at 10 mg/kg; format: ADME, organism-based; settings: in vivo

pEC50 (Hepatitis C virus)	half-life [5] [h]	half-life [6] [h]	AUC(0-t) at 6 h [7] [µM·h]	CL/F [8] [mL/min/kg]	AUC [9] [µM·h]	liver concentration (Liver) [ng/g]	bioavailability [10] [%]	CL/F [11] [mL/min/kg]	bioavailability [12] [%]	AUC [13] [µM·h]	CL/F [14] [mL/min/kg]	half-life [15] [h]	bioavailability [16] [%]	Structure (SMILES)	selectivity ratio [1]	CC50 at 72 h [2] [µM]	CC50 at 72 h [3] [µM]	CC50 at 72 h [4] [µM]
7.70														CNc1nc(Cl)c(-c2cc3cc(OC)nc(C)c3o2)c(N[C@@H]2C[C@H](CO)[C@@H](O)[C@H]2O)n1	> 1000	> 25	25	
	2.1	3.3	45.5	9.5	1.6	10200	15	8	100	10.2	16	2.8	97	CCOc1cc2cc(-c3c(C)nc(NCC4CC4)nc3N[C@@H]3C[C@H](CO)[C@@H](O)[C@H]3O)oc2c(C)n1.Cl				5
	2.1	4.2	5.3	13	6.4	1730	83	27	69	5.2	15	7	39	CCc1cc2cc(-c3c(C)nc(NCC(F)(F)F)nc3N[C@@H]3C[C@H](CO)[C@@H](O)[C@H]3O)oc2cn1.Cl				4

From ChEMBL document CHEMBL2057163, “Pyridofuran substituted pyrimidine derivatives as HCV replication (replicase) inhibitors” (Bioorg Med Chem Lett, 2012)
